The values below come from US20250205207A1, “MATRIX TABLETS OF DEXPRAMIPEXOLE AND METHODS OF MANUFACTURING AND USE THEREOF” (Areteia Therapeutics, Inc., priority 2023, published 2025).

In data set [1] the test system is eosinophil counts in human blood and tissues. Conditions: cited from earlier work.
The next data set has as its system dopamine receptors. Conditions: compared to pramipexole; cited from earlier work.
For data set [2] the following is noted: across the physiological pH range; cited from earlier work.
For data set [3] the following is noted: during tablet manufacture and storage.

Molecules are shown by their SMILES.

Turning to `CCCN[C@@H]1CCc2nc(N)sc2C1` [dexpramipexole, (6R)-2-amino-4,5,6,7-tetrahydro-6-(propylamino)benzothiazole], the “effect on eosinophil counts” value in data set [1] is “selectively and significantly lower eosinophil counts”. In the data set on dopamine receptors, the “affinity for dopamine receptors” value is given as “greatly reduced when compared to pramipexole”.

For the compound `CCCN[C@@H]1CCc2nc(N)sc2C1`, the solubility result in data set [2] is given as “freely soluble”. The “chiral purity over time” value in data set [3] is recorded as “did not change over time”.
